Test results: patent US8536304B2, “Tumour-associated peptides that bind to MHC molecules” (Immatics Biotechnologies GmbH, priority 2002, dated 2013)

What was measured:
Assay type in all cases: cell-based, human
[1] = tested on: A 498 (renal cell carcinoma); assay: 51Cr-release CTL-assay against tumor cell line A 498
Protocol: (§1) In the CTL-assays, tumor cells, peptide-pulsed cells of different cell lines and autologous DC were used as target cells. Peptide-pulsed cells were pulsed with 50 μg/ml peptide (SEQ ID No. 1 or SEQ ID No. 2) for 2 hours. All target cells were labeled with [^51Cr] sodium chromate in RP10 (RPMI 1640, supplemented with 10% heat inactivated calf serum and antibiotics) for 1 hour at 37° C. Subsequently, 10^4 cells/well were transferred to a 96-well round bottomed plate. Varying numbers of CTL were added to give a final volume of 200 μl and incubated for 4 hours at 37° C. At the end of the assays, supernatants (50 μl/well) were harvested and counted in a beta-plate counter. […] The spontaneous and maximal release were determined in the presence of either medium or 2% Triton X-100, respectively.
Next, it was tested, in a standard tumor ^51Cr-release-assays again, whether CTL specific for the c-Met-peptide with SEQ ID No. 1 or for adipophilin-peptide with SEQ ID No. 2 recognized and lysed tumor cells, which endogenously express the c-Met-protooncogene or adipophilin. […]

[2] = tested on: autologous CLL-cells; assay: 51Cr-release assay, CTL of CLL patient against autologous CLL-cells; details: CTL from PBMNC of HLA-A*0201-positive CLL patient; FIG. 6
Protocol: as §1
(§2) In a further experiment, CTL were generated from PBMNC of HLA-A*0201-positive patient with chronic lymphatic leukemia (CLL), which were specific for adipophilin-peptide with SEQ ID NO:2. The patient was in remission after treatment with fludarabine. Further, autologous CLL-cells and DC of this patient were used as ^51Cr-labeled targets in an assay, in which ^51Cr-release is mediated by the peptide-induced CTL.

[3] = tested on: T2-cells (HLA-A*02-positive, TAP deficient); assay: 51Cr-release CTL-assay against peptide-pulsed T2-cells; details: CTL induced with SEQ ID No. 1 (FIG. 2a) or SEQ ID No. 2 (FIG. 2c); targets pulsed 50 μg/ml 2 hours
Protocol: (§3) For CTL induction, the DC obtained in step 2.1 (5×10^5) were pulsed with the peptides obtained in step 2.2 with SEQ ID No. 1 or SEQ ID No. 2, each with 50 μg/ml for 2 hours, washed and incubated with 2.5×10^6 autologous PBMNC in RP10 medium.
(§4) After 7 days of culture, cells were restimulated with autologous PBMNC pulsed with peptides. In doing so, 1 ng/ml human recombinant Interleukin IL-2 (R&D Systems) was added on days 1, 3 and 5. The cytolytic activity of thereby induced CTL was analyzed on day 5 after the last restimulation in a standard ^51Cr-release-assay (see below, under 2.4: CTL-assay).
as §1, with “respectively. […]” for “respectively.”

[4] = tested on: dendritic cells (DC); assay: 51Cr-release CTL-assay against peptide-pulsed DC; details: for lysis of DC pulsed with the peptide: CTL induced with SEQ ID No. 1 (FIG. 2b) or SEQ ID No. 2 (FIG. 2d), targets pulsed 50 μg/ml 2 hours
Protocol: Peripheral blood mononuclear cells (PBMNC) were isolated by Ficoll/Paque—(Biochrom, Berlin, Germany)—density gradients centrifugation of heparinized blood obtained from buffy coat preparations of healthy volunteers from the blood bank of the University of Tübingen. Cells were seeded (1×10^7 cells/3 ml per well) into 6-well plates (Falcon, Heidelberg, Germany) in RP10 media (RPMI 1640, supplied with 10% heat-inactivated fetal calf serum and with antibiotics). After 2 hours of incubation at 37° C. and 5% CO2, non-adherent cells were removed and the adherent blood monocytes were cultured in RP10 medium supplemented with the following cytokins: human recombinant GM-CSF (granulocyte makrophage colony stimulating factor; Leukomax, Novartis; 100 ng/ml), Interleukin IL-4 (R&D Systems, Wiesbaden, Germany, 1000 IU/ml) and TNF-α (tumor necrosis factor α) (R&D Systems, Wiesbaden, Germany, 10 ng/ml).
as §3, §4
In the CTL-assays, tumor cells, peptide-pulsed cells of different cell lines and autologous DC were used as target cells. Peptide-pulsed cells were pulsed with 50 μg/ml peptide (SEQ ID No. 1 or SEQ ID No. 2) for 2 hours. […] At the end of the assays, supernatants (50 μl/well) were harvested and counted in a beta-plate counter. […] The spontaneous and maximal release were determined in the presence of either medium or 2% Triton X-100, respectively. […]

[5] = tested on: non-malignant B-cells; assay: 51Cr-release assay, CTL of CLL patient against non-malignant B-cells; details: FIG. 6
Protocol: as §1, §2

[6] = tested on: 51Cr-labeled U 266; assay: Lysis-inhibition assay with cold peptide-pulsed T2 inhibitor cells, target U 266; details: c-Met-peptide-induced CTL, inhibitor:target 20:1, FIGS. 4a and 4b
Protocol: To further verify the antigen-specificity and the MHC-restriction of the in-vitro-induced CTL, inhibition assays with non-^51Cr-labeled (“cold”) inhibitor cell lines were performed.
In doing so, the ability of peptide-pulsed cell lines was analyzed to inhibit the lysis of tumor cells (competition assay). For this purpose, an excess of inhibitor (that is an excess of unlabeled pulsed cells) was used. The ratio of inhibitor (peptide-pulsed cells) to target (tumor cells) was 20:1. When inhibitor cell lines were lysed, no ^51Cr was released, since the inhibitor cell lines were unlabeled.
Cell line T2 (HLA-A*02; TAP-deficient; see under 2.5.a) was used as inhibitor. Previous to the assay, this cell line T2 was pulsed with the relevant peptides (SEQ ID NOS:1 or 2) or an irrelevant control peptide (Survivin (=Sv), SEQ ID NO:80), respectively.
In FIGS. 4a and 4b, lysis of the ^51Cr-labeled cell lines U 266 and A 498 was tested without inhibitor cell line (see the curve with black filled boxes); lysis with inhibitor cell line T2, pulsed with an irrelevant peptide (Survivin; SEQ ID NO:80; negative control, curves with the filled triangles); and lyses with the inhibitor cell line T2 pulsed with the c-Met-peptide with SEQ ID NO:1 (curves with the empty rhombus).

Row | Sequence | lysis of tumor cells by CTL induced with the peptide ([1]; cell line A 494, FIG. 3e) | lysis of autologous CLL-cells by peptide-induced CTL [2] | lysis of T2-cells pulsed with the peptide [3] | lysis of DC pulsed with the peptide [4] | lysis of autologous DC pulsed with the peptide by CTL induced with the peptide ([4]; autologous setting, FIG. 5b) | lysis of non-malignant B-cells by peptide-induced CTL [5] | lysis of tumor cells by CTL induced with the peptide ([1]; cell line A 498, FIG. 3b) | lysis of 51Cr-labeled tumor cells in presence of unlabeled T2 inhibitor cells pulsed with the peptide [6]
1 | SVASTITGV (listed as Homo sapiens) [SEQ ID No. 2, HLA-A*02 ligand, adipose differentiation-related protein 129-137] | efficiently lyse | efficiently lysed | lysed | lysed | lysed | not lysed | – | –
2 | YVDPVITSI (listed as Homo sapiens) [SEQ ID No. 1, HLA-A*02 ligand, met proto-oncogen 654-662] | – | – | lysed | lysed | – | – | efficiently lyse | not lysed
